Reference: US20210069223A1, “USE OF COMPOUND FOR PREVENTING AND/OR TREATING OBESITY” (TCI CO., LTD., priority 2019, published 2021)

System: bone marrow stromal cells of mice (ATCC CRL-2749) differentiated into adipocytes
Assay: Promoting lipolysis: glycerol outside the cells measured by glycerol assay kit in adipocytes differentiated from bone marrow stromal cells
Format: cell-based
Settings: cultured at 37° C. for 7 days, OD 540 nm, FIG. 12; for lipolysis promoted in comparison with the control group: 10 μg compound per mL in the well
Procedure: According to the present embodiment, bone marrow stromal cells of mice were used for testing the efficacy of the compound TC-CA-01, the compound TCI-CA-02, the compound TC-CA-03, the compound TCI-CA-04, and the compound TCI-CA-05 for prompting lipolysis. The bone marrow stromal cells of mice were purchased from American Type Culture Collection (American ATCC®), and the No. was CRL-2749M. Before differentiation, the cells were cultured in a pre-adipocyte expansion medium, including 90 vol % of an α-MEM (Minimum Essential Medium Eagle-Alpha Modification, purchased from Gibco, No. 11095080, America) cell culture medium, and 10 vol % of fetal bovine serum (purchased from Gibco, No. 10437-028, America). In addition, 1.0 vol % of penicillin-streptomycin (purchased from Gibco, No. 15140122, America) was added. A differentiation medium was used for differentiating the bone marrow stromal cells of mice, and included 90 vol % of α-MEM cell culture medium, and 10 vol % of fetal bovine serum. In addition, 1.0 vol % of penicillin-streptomycin was added.
The bone marrow stromal cells of mice were inoculated in a culture tray by 8×10^4 cells/0.5 mL of the above pre-adipocyte expansion medium in each well. Culture was performed at 37° C. for 7 days. The culture medium in each well was replaced by the above mentioned fresh differentiation medium once every 3 days during the period. After 7 days, a microscope was used to observe and confirm that the lipid droplets have formed so as to ensure the cells completely differentiated into adipocytes. […]
Then, a value of glycerol outside the cells was measured by a glycerol assay kit (purchased from Cayman Chemical, No. 10011725, America). […] This kit quantified the value of glycerol outside the cells by measuring the content of a product of a coupling enzyme reaction system capable of generating a bright purple, and used a glycerol standard in the kit to build a standard curve so as to reckon the value of the glycerol outside the cells of a sample. […]

Compound	lipolysis promoted in comparison with the control group [%]	efficacy for promoting lipolysis in comparison with the control group (result in words) (10 μg of each compound per mL in the well)
O=C1CC(c2ccc(O)cc2)Oc2cc(O)cc(O)c21 (stereo not drawn) [TCI-CA-03, 5,7-Dihydroxy-2-(4-hydroxyphenyl) chroman-4-one]	15	–
C[C@@H]1O[C@@H](O[C@H]2[C@H](Oc3cc(O)c4c(c3)O[C@H](c3ccc(O)cc3)CC4=O)O[C@H](CO)[C@@H](O)[C@@H]2O)[C@H](O)[C@H](O)[C@H]1O [TCI-CA-02]	8	–
COc1cc(/C=C/C(=O)O)ccc1O [TCI-CA-01, 4-hydroxy-3-methoxycinnamic acid]	–	effectively promoted
